Experimental findings from US9890153B2, “Substituted 1H-pyrrolo [2, 3-b] pyridine and 1H-pyrazolo [3, 4-b] pyridine derivatives as salt inducible kinase 2 (SIK2) inhibitors” (Arrien Pharmaceuticals LLC, priority 2012, dated 2018) are described below.

“Also recorded” adds a separate entry of the source. Read-outs that look alike come from different tables or passages of the source.

Series [1] can be described thus: Rat bioavailability and pharmacokinetics. Type of series: in vivo, male Sprague Dawley rats. As to the method: The objective of this study was to investigate the bio-availability and pharmacokinetics of a 1H-Pyrrolo[2,3-b]pyridine compound in male Sprague Dawley rats. A total of 6 male rats were used in the study.
Dose formulations were prepared on the day of doing. Blood samples were collected at 0.083 (only IV), 0.25, 0.5, 1, 2, 4, 8 and 24 h post-dose. At each time point, approximately 0.2 mL of blood was withdrawn from each cannulated rat through jugular vein and transferred to a pre-labeled microfuge tube containing 20 μL of 200 mM K2EDTA permL of blood. Following collection of blood sample, equal volume of heparinized saline was flushed into jugular vein of rat. The blood samples were centrifuged at 5000 g for 5 minutes at 4±2° C. The plasma was separated within 30 min of scheduled time and stored below −60° C. until bio-analysis. The plasma samples were analyzed for 114 using a fit-for purpose liquid chromatographic tandem mass spectrometric detection (LC-MS/MS) method with a lower limit of quantification of 2.21 ng/mL. The pharmacokinetic parameters for compound 114 were calculated using the non-compartmental analysis tool of validated WinNonlin® software (Version 5.2).

Series [2] addresses SIK2 (QIK) (SEQ ID NO: 11) (Homo sapiens, UniProt Q9H0K1). Description: SIK2 kinase assay (radiometric, 10 μM ATP). It is filed as biochemical. To be noted: read-out: SIK2 (QIK) (SEQ ID NO: 11) kinase inhibition result. Put shortly:
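Radiometric filter-binding format: enzyme and substrate peptide incubated with or without compound and ATP mix for 20 min at 30 °C. Reaction stopped with phosphoric acid, captured on filter mats and washed with 0.8% phosphoric acid before counting.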

Series [3] deals with T1, SIK3 (QSK) (SEQ ID NO: 24) (Homo sapiens, UniProt Q9Y2K2).
T1 construct: Reaction Biology Corporation (assay service, HotSpot panel)
T1 sequence (Q9Y2K2 whole entry): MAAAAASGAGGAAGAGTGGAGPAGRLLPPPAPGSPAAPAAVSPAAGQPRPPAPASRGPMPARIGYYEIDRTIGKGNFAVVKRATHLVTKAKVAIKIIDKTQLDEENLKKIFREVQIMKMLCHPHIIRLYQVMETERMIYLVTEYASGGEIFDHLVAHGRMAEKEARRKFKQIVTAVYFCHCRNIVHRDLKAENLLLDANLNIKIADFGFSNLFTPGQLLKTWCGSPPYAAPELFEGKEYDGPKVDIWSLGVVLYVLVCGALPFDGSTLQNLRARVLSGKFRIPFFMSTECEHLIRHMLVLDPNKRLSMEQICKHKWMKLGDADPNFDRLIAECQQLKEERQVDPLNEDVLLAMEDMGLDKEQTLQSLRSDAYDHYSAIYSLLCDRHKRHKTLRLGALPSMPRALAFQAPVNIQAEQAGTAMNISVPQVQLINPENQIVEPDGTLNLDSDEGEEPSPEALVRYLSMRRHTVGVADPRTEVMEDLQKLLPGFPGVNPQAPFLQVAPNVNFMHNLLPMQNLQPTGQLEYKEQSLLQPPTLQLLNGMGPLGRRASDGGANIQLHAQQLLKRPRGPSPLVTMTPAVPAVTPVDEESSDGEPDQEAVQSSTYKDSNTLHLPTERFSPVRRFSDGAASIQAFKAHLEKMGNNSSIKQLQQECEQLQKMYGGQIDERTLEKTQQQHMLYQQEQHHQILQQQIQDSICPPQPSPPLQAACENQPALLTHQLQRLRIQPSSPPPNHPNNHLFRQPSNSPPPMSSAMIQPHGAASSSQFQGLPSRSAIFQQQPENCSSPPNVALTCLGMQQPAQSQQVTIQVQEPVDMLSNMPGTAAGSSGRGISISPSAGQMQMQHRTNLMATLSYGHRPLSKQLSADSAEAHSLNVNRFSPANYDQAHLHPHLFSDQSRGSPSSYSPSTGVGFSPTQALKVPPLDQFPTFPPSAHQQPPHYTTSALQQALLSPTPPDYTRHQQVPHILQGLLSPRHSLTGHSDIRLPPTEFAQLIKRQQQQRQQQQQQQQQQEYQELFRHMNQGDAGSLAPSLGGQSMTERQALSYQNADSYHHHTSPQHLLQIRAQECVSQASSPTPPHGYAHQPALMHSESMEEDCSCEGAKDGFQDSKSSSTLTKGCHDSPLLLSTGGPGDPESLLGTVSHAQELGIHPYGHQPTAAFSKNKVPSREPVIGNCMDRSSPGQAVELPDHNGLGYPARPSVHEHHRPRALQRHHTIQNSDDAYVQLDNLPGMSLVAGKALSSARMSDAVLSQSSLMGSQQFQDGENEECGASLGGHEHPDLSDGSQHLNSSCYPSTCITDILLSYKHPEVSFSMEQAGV
Description: Protein kinase assay, SIK3. To be noted: read-out: SIK3 (QSK) (SEQ ID NO: 24) kinase inhibition result. It is filed as biochemical. A digest of the protocol: (§1)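 Radiometric assay in HEPES pH 7.5 with MgCl2, EGTA, Brij35, BSA, Na3VO4, DTT and 1% DMSO; compound added ~20 min before ATP plus 33P-ATP (10 μM final). IC50 from curve fits.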

In a further series the target is T2, SIK1 (SEQ ID NO: 10) (Homo sapiens, UniProt P57059).
T2 construct: Reaction Biology Corporation (assay service, HotSpot panel)
T2 sequence (P57059 whole entry): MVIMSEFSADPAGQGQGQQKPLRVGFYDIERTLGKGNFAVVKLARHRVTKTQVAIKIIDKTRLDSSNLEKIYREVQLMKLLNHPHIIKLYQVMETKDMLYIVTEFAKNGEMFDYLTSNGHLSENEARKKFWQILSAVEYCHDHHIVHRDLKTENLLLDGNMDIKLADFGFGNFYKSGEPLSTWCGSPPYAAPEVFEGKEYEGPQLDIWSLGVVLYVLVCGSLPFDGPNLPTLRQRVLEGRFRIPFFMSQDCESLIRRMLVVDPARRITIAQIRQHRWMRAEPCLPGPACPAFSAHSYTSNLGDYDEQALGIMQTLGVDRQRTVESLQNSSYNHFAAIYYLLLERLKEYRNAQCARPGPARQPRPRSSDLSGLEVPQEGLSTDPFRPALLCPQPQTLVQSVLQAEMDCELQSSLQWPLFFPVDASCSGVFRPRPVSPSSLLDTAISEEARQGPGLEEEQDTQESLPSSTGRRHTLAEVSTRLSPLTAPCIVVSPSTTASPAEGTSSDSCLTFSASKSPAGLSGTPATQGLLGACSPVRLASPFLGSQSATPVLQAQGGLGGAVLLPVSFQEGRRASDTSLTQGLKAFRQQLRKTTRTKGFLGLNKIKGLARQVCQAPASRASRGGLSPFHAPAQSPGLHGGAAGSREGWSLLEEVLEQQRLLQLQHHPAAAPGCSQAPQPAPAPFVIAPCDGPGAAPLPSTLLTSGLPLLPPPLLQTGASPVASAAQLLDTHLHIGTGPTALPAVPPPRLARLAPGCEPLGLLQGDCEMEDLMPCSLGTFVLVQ
Nature of the series: Protein kinase assay, SIK1. It is filed as biochemical. To be noted: read-out: SIK1 (SEQ ID NO: 10) kinase inhibition result. Put shortly: as §1

For the next series, the system named is SKOV3ip1 tumor cells. Nature of the series: SKOv3 induced orthotopic murine model. It is filed as in vivo, athymic female mice. To be noted: 20-100 mg/kg i.p. or p.o. On the procedure:
Dose-finding experiments initiated by injecting SKOV3ip1 (SKOV3ip1 cells were collected from cultures using either 0.25% trypsin-EDTA (Life Technologies) on the cell line) tumor cells i.p. (2.5×10^5) into athymic female mice. 19 days after tumor cell orthotopic inoculation and when i.p. tumors were palpable, then the mice randomized into 6 dosage groups: 0 mg (vehicle alone, group 1), 20 and 40 mg/kg (groups 2, 3) received 1H-Pyrrolo[2,3-b]pyridine compound i.p QD for 3 days (M/W/F), 60 and 80 mg/kg (groups 4, 5) received 1H-Pyrrolo[2,3-b]pyridine compound p.o BID for 3 days (M/W/F) and 100 mg/kg group received 1H-Pyrrolo[2,3-b]pyridine compound+Taxol p.o BID for 3 days (M/W/F). […] Additionally, we performed quantitative RT-PCR, Western blot, and immunocytology experiments to identify overexpression of SIK2 in control groups against treatment groups along with SIK2 inhibition of transcription factor CREB via phosphorylation of its cofactor TORC2/CRTC2 as a biological indicator of SIK2 kinase activity. Further characterized the effects of SIK2 kinase inhibition on tumor growth inhibition, examined the tumor nodule formation.

The next series relates to SKOv3 cells. Description: SKOv3 i.p. xenograft in nu/nu mice. Type of series: in vivo. To be noted: derivatives 30, 60 mg/kg, taxol 10 mg/kg, FIG. 5a-c. As to the method:
We examined the growth-inhibitory effect of 1H-Pyrrolo[2,3-b]pyridine derivatives in-vivo employing an i.p. xenograft model in which nu/nu mice were inoculated i.p. with sensitive cell line SKOv3 cells. One week after inoculation, mice were randomized into six treatment groups receiving vehicle, 1H-Pyrrolo[2,3-b]pyridine derivatives 30, 60 mg/kg, taxol 10 mg/kg and 1H-Pyrrolo[2,3-b]pyridine plus taxol. Drug treatment was well tolerated except i.p. treatment second group, with no apparent toxicity throughout the study. At the end of an experiment, all mice were sacrificed for tumor volume, weight and each mouse examined and recorded at autopsy.

Where [4] appears, read: male, Sprague Dawley, plasma, IV 5 mg/kg, rat.
Where [5] appears, read: male, Sprague Dawley, plasma, PO 20 mg/kg, rat.

SIK2 (QIK) (SEQ ID NO: 11), sequence (Q9H0K1 whole entry): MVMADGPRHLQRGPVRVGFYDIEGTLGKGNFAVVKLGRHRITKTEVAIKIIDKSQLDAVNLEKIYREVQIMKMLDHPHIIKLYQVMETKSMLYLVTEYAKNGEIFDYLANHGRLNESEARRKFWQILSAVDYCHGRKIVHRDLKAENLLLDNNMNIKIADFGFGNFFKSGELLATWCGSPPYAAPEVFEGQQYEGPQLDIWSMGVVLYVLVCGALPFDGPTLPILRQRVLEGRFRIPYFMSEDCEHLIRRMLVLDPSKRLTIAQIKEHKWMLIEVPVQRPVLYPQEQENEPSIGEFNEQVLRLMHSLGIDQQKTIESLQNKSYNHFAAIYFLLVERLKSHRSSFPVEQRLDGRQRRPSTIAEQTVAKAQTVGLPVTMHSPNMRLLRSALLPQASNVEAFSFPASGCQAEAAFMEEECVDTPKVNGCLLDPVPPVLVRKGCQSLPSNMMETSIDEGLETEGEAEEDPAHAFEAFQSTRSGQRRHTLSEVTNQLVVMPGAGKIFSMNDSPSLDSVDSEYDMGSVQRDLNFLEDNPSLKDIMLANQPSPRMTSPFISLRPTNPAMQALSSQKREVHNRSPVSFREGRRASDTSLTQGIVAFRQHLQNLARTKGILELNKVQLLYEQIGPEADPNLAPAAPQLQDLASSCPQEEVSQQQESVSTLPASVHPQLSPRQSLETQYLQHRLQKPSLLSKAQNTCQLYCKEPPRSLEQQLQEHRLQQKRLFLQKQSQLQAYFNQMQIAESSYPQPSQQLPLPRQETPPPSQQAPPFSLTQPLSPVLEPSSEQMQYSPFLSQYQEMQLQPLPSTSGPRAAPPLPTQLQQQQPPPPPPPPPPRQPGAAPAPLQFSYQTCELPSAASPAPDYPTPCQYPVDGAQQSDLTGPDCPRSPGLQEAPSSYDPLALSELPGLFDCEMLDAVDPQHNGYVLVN

The compound `Fc1cccc(-c2c[nH]c3ncc(-c4ccsc4)cc23)c1Cl` [Example 114, 3-(2-chloro-3-fluorophenyl)-5-(thiophen-3-yl)-1H-pyrrolo[2,3-b]pyridine] yielded a F in series [1] (PO 20 mg/kg vs IV 5 mg/kg, from AUCinf and nominal doses) of 15%. For the same compound, the results for the AUC(0-inf) in series [1] (setting [4]) and in series [1] (setting [5]) were 2620 ± 647 ng·h/mL and 1600 ± 183 ng·h/mL, respectively. In addition, the figures for the AUC(0-t) in series [1] (setting [4]) and in series [1] (setting [5]) were 2600 ± 637 ng·h/mL and 1580 ± 179 ng·h/mL, respectively. Moreover, the clearance in series [1] (setting [4]) was determined as 33.4 ± 9.57 mL/min/kg. Further, the half-life in series [1] (setting [4]) was 32.4 ± 3 min. In addition, the Cmax in series [1] (male, Sprague Dawley, plasma, IV 5 mg/kg, rat, read-out: Cmax (concentration at time zero)) amounted to 3850 ng/mL; in series [1] (male, Sprague Dawley, plasma, PO 20 mg/kg, rat, read-out: Cmax), 853 ng/mL. Further, the Vd in series [1] (male, Sprague Dawley, plasma, IV 5 mg/kg, rat, read-out: Vss) is 1.61 ± 0.28 L/kg. The Tmax in series [1] (male, Sprague Dawley, plasma, PO 20 mg/kg, rat, read-out: Tmax (median)) came to 15 min. The values for the IC50 (in series [2]; in series [3]; at SIK1 (SEQ ID NO: 10)) were less than 100 nM, more than 1000 nM and more than 100 nM, respectively.
Consider `CS(=O)(=O)N1CCN(c2cnn(-c3cnc4[nH]cc(-c5ccc6c(c5)OC(F)(F)O6)c4c3)c2)CC1` [Example 224, 3-(2,2-difluorobenzo[d][1,3]dioxol-5-yl)-5-(4-(4-(methylsulfonyl)piperazin-1-yl)-1H-pyrazol-1-yl)-1H-pyrrolo[2,3-b]pyridine], for which the IC50 in series [2] was less than 100 nM; in series [3] it was less than 100 nM; at SIK1 (SEQ ID NO: 10) it was more than 100 nM.
Take `OCCN1CCN(c2cnn(-c3cnc4[nH]cc(-c5ccc6c(c5)OC(F)(F)O6)c4c3)c2)CC1` [Example 225, 2-(4-(1-(3-(2,2-difluorobenzo[d][1,3]dioxol-5-yl)-1H-pyrrolo[2,3-b]pyridin-5-yl)-1H-pyrazol-4-yl)piperazin-1-yl)ethanol]: the IC50 in series [2] is less than 100 nM; in series [3] it was less than 100 nM; on SIK1 (SEQ ID NO: 10) it was more than 100 nM.
With `COc1c(F)cc(F)cc1-c1c[nH]c2ncc(-c3cnn(C4CCN(CCO)CC4)c3)cc12` [Example 226, 2-(4-(4-(3-(3,5-difluoro-2-methoxyphenyl)-1H-pyrrolo[2,3-b]pyridin-5-yl)-1H-pyrazol-1-yl)piperidin-1-yl)ethanol], the IC50 in series [2] is less than 100 nM; in series [3], less than 100 nM; at SIK1 (SEQ ID NO: 10) it was more than 100 nM.
Consider `OCCN1CCC(n2cc(-c3cnc4[nH]cc(-c5ccc6c(c5)OC(F)(F)O6)c4c3)cn2)CC1` [Example 227, 2-(4-(4-(3-(2,2-difluorobenzo[d][1,3]dioxol-5-yl)-1H-pyrrolo[2,3-b]pyridin-5-yl)-1H-pyrazol-1-yl)piperidin-1-yl)ethanol], for which the IC50 in series [2] was less than 100 nM; in series [3], less than 100 nM; on SIK1 (SEQ ID NO: 10), more than 100 nM.
For the compound `CC(=O)O[C@H]1C(=O)[C@@]2(C)[C@H]([C@H](OC(=O)c3ccccc3)[C@]3(O)C[C@H](OC(=O)[C@H](O)[C@@H](NC(=O)c4ccccc4)c4ccccc4)C(C)=C1C3(C)C)[C@]1(OC(C)=O)CO[C@@H]1C[C@@H]2O` [taxol], in the series with SKOV3ip1 tumor cells, the antitumor effect entry is recorded as “significant antitumor effects”. Moreover, the “antitumor effect (tumor volume, weight, number)” value in the series on SKOv3 cells was “significant antitumor effects; also recorded: inhibited the abdominal tumor growth and tumor cell dissemination”.

One may read the AUC(0-inf) as the area under the concentration-time curve extrapolated to infinity. Read a high AUC(0-inf) as more exposure. As usually defined, the AUC(0-t) is the area under the concentration-time curve up to a stated or last time point. High values mean more exposure, low ones less exposure. What is called clearance is the rate of elimination divided by the concentration. A low value points to a low capacity for elimination. In general, half-life refers to the time needed for the level to fall by half in the phase considered. What is called Tmax is the time from dosing to the highest level.
